Read-outs that look alike come from different tables or passages of the source.
Legend:
[1] = tested on: multidrug-resistant P. aeruginosa clinical isolates from Walter Reed Army Hospital; assay: Levofloxacin MIC potentiation, WRAIR MRSN isolates; assay type: cell-based, Pseudomonas aeruginosa; details: for MIC: Pseudomonas aeruginosa
Procedure: MIC assays for potentiation of antimicrobial activity against P. aeruginosa were performed as described previously.

Cav1.2 = molecular target: T1, Cav1.2 (Homo sapiens, UniProt Q13936); assay: QPatch ion channel assay; assay type: cell-based; details: read-out: % Inhibition (n = 2), Cav1.2
T1 construct: host or cells: HEK293
From the text: (§1) The automated whole-cell patch-clamp (Qpatch HT) technique is used to record depolarizing currents, hNav1.5 and hCav1.2, and repolarizing potassium currents, hERG. Cells Recombinant HEK-293 cells stably transfected with human Nav1.5 cDNA, Recombinant HEK293 cell line expressing the human Cav1.2 (L-type voltage-gated calcium channel, hCav1.2 α1C/β2a/α2δ1, and recombinant CHO-K1 cells stably transfected with human hERG cDNA are used separately in each of these assays. The cells are harvested by Accutase and maintained in Serum-Free Medium at room temperature before assay. On the instrument, the cells are pipetted into each well of a 48-well plate in external solution. Test concentration stock solution is prepared in DMSO at 300× the final assay concentrations, and stored at −20 °C until the day of assay. On the day of the assay, an aliquot of the stock solution is thawed and diluted into external solution to make final test concentrations. A final concentration of 0.33% DMSO is maintained for each concentration of the assay compounds and controls. The assay is conducted at room temperature. Recording conditions hNav1.5 Peak current Onset and steady state block of peak Nav1.5 current are measured using a pulse pattern, repeated every 5 sec, consisting of a hyperpolarizing pulse to −120 mV for a 200 ms duration, depolarization to −15 mV amplitude for a 40 ms duration, followed by a step to 40 mV for 200 ms and finally a 100 ms ramp (1.2 V/s) to a holding potential of −80 mV. hCav1.2 currents are evoked following a 100 ms pulse to −60 mV followed by a 50 ms pulse to +10 mV before returning to the holding potential of −90 mV. This paradigm is delivered three times once every 20 s. Cells are held at −90 mV with a 5 s pulse to −60 mV every 20 s for a total of 120 s between each set of three pulses. The cell is held at −80 mV. Then the cell is depolarized to +40 mV for 500 ms and then to −80 mV over a 100 ms ramp to elicit the hERG tail current. This paradigm is delivered once every 8 s. The Extracellular Solution (control) is applied first and the cell is stabilized in the solution for 5 min. Then the test compound is applied from low to high concentrations sequentially on the same cell. The cells are incubated with each test concentration for 5 min. Reference compounds Tetracaine Nifedipine and E-4031 are tested concurrently for hNav1.5, hCav1.2 and hERG, respectively, at multiple concentrations to obtain an IC50 value.
(§2) The amplitude of the sodium current is calculated by measuring the difference between the peak inward current on stepping to −10 mV (i.e., peak current) and the leak current. The sodium current is assessed in vehicle control conditions and then at the end of each five (5)-minute compound application. Individual cell results are normalized to the vehicle control amplitude and the mean ± SEM is calculated for each compound concentration. These values are then plotted and estimated IC50 curve fits are calculated. The maximum inward current elicited on stepping to +10 mV for 50msec from −60 mV is measured. Compound interaction is assessed by dividing post-current amplitude (at the end of each three (3)-minute compound application) by the vehicle control amplitude and the mean calculated for each compound concentration. These values are then plotted and estimated IC50 curve fits are calculated. The percent inhibition of the hERG channel is calculated by comparing the peak (hERG tail) current amplitude before and after application of the compound (the current difference is normalized to vehicle control values).

hERG = molecular target: T2, hERG (Homo sapiens, UniProt Q12809); assay: QPatch ion channel assay; assay type: cell-based; details: CHO-K1 cells stably transfected with human hERG, read-out: % Inhibition (n = 2), hERG
T2 construct: host or cells: CHO-K1
From the text: as §1, §2

Nav1.5 (peak current) = molecular target: T3, Nav1.5 (peak current) (Homo sapiens, UniProt Q14524); assay: QPatch ion channel assay; assay type: cell-based; details: read-out: % Inhibition (n = 2), Nav1.5
T3 construct: host or cells: HEK-293
From the text: as §1, §2

T1 sequence (Q13936 whole entry): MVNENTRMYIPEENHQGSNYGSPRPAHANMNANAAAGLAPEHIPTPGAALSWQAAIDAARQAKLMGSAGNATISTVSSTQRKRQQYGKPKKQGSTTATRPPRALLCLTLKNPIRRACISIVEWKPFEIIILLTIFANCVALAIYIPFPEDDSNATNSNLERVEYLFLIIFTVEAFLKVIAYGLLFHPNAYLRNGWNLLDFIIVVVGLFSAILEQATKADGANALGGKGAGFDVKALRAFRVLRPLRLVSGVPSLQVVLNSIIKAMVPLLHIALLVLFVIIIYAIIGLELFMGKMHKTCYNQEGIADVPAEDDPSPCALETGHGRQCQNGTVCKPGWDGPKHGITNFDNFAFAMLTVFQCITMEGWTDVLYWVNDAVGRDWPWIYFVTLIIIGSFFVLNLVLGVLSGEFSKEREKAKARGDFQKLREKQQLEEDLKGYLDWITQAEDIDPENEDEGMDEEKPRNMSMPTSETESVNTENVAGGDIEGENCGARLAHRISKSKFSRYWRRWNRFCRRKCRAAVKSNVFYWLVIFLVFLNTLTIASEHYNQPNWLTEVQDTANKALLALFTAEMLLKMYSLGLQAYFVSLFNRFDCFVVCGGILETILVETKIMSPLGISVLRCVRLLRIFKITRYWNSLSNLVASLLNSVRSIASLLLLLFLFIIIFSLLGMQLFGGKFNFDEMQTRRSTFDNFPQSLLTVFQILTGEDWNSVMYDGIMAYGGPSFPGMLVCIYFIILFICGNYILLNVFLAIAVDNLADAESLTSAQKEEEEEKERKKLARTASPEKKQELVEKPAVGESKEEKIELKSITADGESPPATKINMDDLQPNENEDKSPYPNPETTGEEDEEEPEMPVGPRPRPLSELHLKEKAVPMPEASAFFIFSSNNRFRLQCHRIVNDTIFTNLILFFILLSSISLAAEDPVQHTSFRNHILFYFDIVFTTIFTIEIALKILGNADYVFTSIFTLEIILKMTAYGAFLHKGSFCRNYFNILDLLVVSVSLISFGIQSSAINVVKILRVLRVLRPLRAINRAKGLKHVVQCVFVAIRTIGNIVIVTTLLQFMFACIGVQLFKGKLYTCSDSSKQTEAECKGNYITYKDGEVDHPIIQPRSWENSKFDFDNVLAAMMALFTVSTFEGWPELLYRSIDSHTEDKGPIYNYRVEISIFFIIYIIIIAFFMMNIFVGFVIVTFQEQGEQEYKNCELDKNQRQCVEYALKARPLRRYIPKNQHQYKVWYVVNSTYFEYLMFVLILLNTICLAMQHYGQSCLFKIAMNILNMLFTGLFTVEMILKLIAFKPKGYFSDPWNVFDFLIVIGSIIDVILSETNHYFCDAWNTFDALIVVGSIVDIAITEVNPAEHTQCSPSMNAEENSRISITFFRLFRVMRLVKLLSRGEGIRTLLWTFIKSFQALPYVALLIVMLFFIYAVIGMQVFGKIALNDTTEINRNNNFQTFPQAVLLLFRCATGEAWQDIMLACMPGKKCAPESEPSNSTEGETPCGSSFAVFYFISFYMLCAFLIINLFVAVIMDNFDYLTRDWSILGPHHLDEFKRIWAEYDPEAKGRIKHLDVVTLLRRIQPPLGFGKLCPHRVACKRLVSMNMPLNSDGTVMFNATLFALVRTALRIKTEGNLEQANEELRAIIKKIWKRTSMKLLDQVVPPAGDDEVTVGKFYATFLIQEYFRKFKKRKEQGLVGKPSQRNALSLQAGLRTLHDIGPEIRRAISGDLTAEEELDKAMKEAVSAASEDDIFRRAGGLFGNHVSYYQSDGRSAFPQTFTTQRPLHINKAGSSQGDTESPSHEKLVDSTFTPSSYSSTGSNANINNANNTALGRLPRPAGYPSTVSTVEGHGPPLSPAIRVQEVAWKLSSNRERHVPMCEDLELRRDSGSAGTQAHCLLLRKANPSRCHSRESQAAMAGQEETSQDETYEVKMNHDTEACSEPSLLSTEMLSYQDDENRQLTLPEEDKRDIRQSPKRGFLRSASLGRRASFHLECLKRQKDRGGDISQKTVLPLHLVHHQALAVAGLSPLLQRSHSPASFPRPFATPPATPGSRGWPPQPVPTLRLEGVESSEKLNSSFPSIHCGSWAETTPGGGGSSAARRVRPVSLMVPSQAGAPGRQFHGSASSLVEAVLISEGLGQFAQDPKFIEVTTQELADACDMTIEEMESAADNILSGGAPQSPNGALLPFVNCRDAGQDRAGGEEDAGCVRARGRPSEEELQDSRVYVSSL
T1 sequence (Q08289 whole entry partner): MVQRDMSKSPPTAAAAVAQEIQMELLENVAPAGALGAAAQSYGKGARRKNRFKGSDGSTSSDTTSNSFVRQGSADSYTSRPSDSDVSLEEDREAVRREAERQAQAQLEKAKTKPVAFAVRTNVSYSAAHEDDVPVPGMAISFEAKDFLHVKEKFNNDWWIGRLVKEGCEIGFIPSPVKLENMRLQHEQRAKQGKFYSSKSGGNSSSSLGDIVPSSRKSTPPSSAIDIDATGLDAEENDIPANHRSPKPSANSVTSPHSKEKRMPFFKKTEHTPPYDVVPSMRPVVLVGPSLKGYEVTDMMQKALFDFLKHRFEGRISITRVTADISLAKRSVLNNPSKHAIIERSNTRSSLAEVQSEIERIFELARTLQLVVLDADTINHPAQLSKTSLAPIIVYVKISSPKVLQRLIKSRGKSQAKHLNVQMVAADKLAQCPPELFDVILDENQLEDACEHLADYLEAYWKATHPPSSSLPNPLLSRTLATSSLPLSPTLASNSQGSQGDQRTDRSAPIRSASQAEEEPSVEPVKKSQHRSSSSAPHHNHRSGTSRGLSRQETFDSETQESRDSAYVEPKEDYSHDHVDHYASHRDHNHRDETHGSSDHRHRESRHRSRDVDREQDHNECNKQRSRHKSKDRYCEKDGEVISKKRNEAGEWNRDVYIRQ
T1 sequence (P54289 25-1103 partner): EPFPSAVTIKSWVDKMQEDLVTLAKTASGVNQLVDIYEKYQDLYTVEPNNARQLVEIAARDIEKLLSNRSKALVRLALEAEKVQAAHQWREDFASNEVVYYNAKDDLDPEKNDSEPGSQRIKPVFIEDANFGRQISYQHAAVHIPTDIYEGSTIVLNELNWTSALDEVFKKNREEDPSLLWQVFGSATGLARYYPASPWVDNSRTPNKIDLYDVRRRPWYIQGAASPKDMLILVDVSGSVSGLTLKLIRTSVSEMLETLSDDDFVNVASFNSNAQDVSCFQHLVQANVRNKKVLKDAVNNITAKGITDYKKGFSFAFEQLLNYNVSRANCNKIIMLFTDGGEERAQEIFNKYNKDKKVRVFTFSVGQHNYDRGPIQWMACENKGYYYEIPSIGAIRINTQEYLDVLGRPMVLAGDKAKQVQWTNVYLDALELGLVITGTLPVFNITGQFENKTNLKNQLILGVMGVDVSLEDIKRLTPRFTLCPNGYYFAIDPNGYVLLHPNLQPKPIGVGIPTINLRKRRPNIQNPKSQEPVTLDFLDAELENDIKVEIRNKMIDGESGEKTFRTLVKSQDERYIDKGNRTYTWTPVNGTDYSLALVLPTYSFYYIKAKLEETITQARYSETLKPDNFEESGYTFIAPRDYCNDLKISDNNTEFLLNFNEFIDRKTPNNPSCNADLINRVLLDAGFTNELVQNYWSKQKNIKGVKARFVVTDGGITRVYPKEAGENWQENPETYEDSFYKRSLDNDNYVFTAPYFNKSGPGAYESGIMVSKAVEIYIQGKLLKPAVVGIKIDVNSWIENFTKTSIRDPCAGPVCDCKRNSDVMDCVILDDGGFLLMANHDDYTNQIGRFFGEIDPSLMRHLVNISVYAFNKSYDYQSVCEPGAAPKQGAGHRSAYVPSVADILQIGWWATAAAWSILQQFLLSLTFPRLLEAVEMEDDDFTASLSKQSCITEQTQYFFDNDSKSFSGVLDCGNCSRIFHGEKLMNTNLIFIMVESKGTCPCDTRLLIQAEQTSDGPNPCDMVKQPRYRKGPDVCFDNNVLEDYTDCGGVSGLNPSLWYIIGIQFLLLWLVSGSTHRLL
T2 sequence (Q12809 whole entry): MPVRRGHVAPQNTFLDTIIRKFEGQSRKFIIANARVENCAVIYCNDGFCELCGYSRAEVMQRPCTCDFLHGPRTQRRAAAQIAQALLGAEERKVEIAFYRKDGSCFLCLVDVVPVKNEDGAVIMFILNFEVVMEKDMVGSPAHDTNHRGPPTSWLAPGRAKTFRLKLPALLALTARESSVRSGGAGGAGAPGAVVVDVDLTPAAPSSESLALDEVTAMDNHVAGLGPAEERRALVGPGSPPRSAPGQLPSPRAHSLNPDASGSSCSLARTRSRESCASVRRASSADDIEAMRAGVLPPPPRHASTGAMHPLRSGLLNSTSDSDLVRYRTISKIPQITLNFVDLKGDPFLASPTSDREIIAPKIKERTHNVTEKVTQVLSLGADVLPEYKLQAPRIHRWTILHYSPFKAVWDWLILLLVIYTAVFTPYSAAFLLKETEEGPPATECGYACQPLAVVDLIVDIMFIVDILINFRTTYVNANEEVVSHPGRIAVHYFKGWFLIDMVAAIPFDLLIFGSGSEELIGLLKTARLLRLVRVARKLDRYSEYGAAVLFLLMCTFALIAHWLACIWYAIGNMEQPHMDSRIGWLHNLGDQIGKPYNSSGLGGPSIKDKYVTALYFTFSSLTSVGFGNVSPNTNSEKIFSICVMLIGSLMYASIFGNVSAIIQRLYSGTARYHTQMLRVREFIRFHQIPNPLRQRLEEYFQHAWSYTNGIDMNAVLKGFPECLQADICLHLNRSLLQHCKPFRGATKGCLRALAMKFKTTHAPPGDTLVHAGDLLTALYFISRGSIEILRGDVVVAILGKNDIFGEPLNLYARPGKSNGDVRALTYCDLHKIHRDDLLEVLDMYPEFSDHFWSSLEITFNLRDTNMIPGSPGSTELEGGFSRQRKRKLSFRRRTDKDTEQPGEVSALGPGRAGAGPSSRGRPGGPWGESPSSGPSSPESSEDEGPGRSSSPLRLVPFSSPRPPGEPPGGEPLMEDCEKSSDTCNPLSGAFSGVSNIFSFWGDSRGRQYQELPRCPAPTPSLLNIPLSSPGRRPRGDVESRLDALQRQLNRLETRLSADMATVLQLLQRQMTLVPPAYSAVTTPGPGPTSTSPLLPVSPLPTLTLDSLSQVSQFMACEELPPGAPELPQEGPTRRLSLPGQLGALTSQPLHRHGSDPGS

C[C@H]1COc2c(N3CCN(C)CC3)c(F)cc3c(=O)c(C(=O)O)cn1c23 [Levofloxacin, levofloxacin]
MIC ([1]; read-out: Levofloxacin MIC alone across panel, 20 MRSN isolates): ≥ 8 µg/mL | MIC ([1]; read-out: Levofloxacin MIC, No EPI, MRSN #994): 16 µg/mL | MIC ([1]; read-out: Levofloxacin MIC, No EPI, MRSN #1344): 8 µg/mL | MIC ([1]; read-out: Levofloxacin MIC, No EPI, MRSN #3587): 8 µg/mL | MIC ([1]; read-out: Levofloxacin MIC, No EPI, MRSN #3705): 8 µg/mL | MIC ([1]; read-out: Levofloxacin MIC, No EPI, MRSN #5498): 32 µg/mL | MIC ([1]; read-out: Levofloxacin MIC, No EPI, MRSN #5519): 64 µg/mL | MIC ([1]; read-out: Levofloxacin MIC, No EPI, MRSN #5539): 16 µg/mL | MIC ([1]; read-out: Levofloxacin MIC, No EPI, MRSN #6220): 128 µg/mL | MIC ([1]; read-out: Levofloxacin MIC, No EPI, MRSN #6241): 8 µg/mL | MIC ([1]; read-out: Levofloxacin MIC, No EPI, MRSN #6678): 32 µg/mL | MIC ([1]; read-out: Levofloxacin MIC, No EPI, MRSN # 6695): 8 µg/mL | MIC ([1]; read-out: Levofloxacin MIC, No EPI, MRSN #8130): 16 µg/mL | MIC ([1]; read-out: Levofloxacin MIC, No EPI, MRSN #8139): 8 µg/mL | MIC ([1]; read-out: Levofloxacin MIC, No EPI, MRSN #8912): 16 µg/mL | MIC ([1]; read-out: Levofloxacin MIC, No EPI, MRSN #8914): 16 µg/mL | MIC ([1]; read-out: Levofloxacin MIC, No EPI, MRSN #8915): 128 µg/mL | MIC ([1]; read-out: Levofloxacin MIC, No EPI, MRSN #14981): 16 µg/mL | MIC ([1]; read-out: Levofloxacin MIC, No EPI, MRSN #15566): 8 µg/mL | MIC ([1]; read-out: Levofloxacin MIC, No EPI, MRSN #16344): 8 µg/mL | MIC ([1]; read-out: Levofloxacin MIC, No EPI, MRSN #369569): 32 µg/mL

NC[C@@H]1CN[C@H](CNC(=O)c2cc3ccc(-c4ccc(F)cc4)cc3[nH]2)C1 [TXA09155]
inhibition at 3 min, 10 µM (Cav1.2): 12.7% | inhibition at 5 min, 10 µM (hERG): 9.2% | inhibition at 5 min, 10 µM (Nav1.5 (peak current)): 0.1%

NCC(F)C[C@@H](N)CNC(=O)c1cc2ccc(-c3ccc(F)cc3)cc2[nH]1 (stereo partly drawn) [TXA11114, N-((2R)-2,5-diamino-4-fluoropentyl)-6-(4-fluorophenyl)-1H-indole-2-carboxamide]
Levofloxacin MIC reductions across panel ([1]; 20 MRSN isolates, + TXA11114 […]): 2- to 32 fold | Share of isolates shifted to levofloxacin susceptibility ([1]; 20 highly MDR MRSN isolates, + TXA11114): 65% | Levofloxacin MIC fold difference, +TXA11114 ([1]; MRSN #994): 8 fold | Levofloxacin MIC, +TXA11114 ([1]; MRSN #994): 2 µg/mL | Levofloxacin MIC, +TXA11114 ([1]; MRSN #1344): 0.25 µg/mL | Levofloxacin MIC fold difference, +TXA11114 ([1]; MRSN #3587): 8 fold | Levofloxacin MIC, +TXA11114 ([1]; MRSN #3587): 1 µg/mL | Levofloxacin MIC fold difference, +TXA11114 ([1]; MRSN #3705): 32 fold | Levofloxacin MIC, +TXA11114 ([1]; MRSN #3705): 0.25 µg/mL | Levofloxacin MIC fold difference, +TXA11114 ([1]; MRSN #5498): 8 fold | Levofloxacin MIC, +TXA11114 ([1]; MRSN #5498): 4 µg/mL | Levofloxacin MIC fold difference, +TXA11114 ([1]; MRSN #5519): 16 fold | Levofloxacin MIC, +TXA11114 ([1]; MRSN #5519): 4 µg/mL | Levofloxacin MIC fold difference, +TXA11114 ([1]; MRSN #5539): 2 fold | Levofloxacin MIC, +TXA11114 ([1]; MRSN #5539): 8 µg/mL | Levofloxacin MIC fold difference, +TXA11114 ([1]; MRSN #6220): 16 fold | Levofloxacin MIC, +TXA11114 ([1]; MRSN #6220): 8 µg/mL | Levofloxacin MIC fold difference, +TXA11114 ([1]; MRSN #6241): 4 fold | Levofloxacin MIC, +TXA11114 ([1]; MRSN #6241): 2 µg/mL | Levofloxacin MIC fold difference, +TXA11114 ([1]; MRSN #6678): 8 fold | Levofloxacin MIC, +TXA11114 ([1]; MRSN #6678): 4 µg/mL | Levofloxacin MIC fold difference, +TXA11114 ([1]; MRSN # 6695): 16 fold | Levofloxacin MIC, +TXA11114 ([1]; MRSN # 6695): 0.5 µg/mL | Levofloxacin MIC fold difference, +TXA11114 ([1]; MRSN #8130): 8 fold | Levofloxacin MIC, +TXA11114 ([1]; MRSN #8130): 2 µg/mL | Levofloxacin MIC fold difference, +TXA11114 ([1]; MRSN #8139): 8 fold | Levofloxacin MIC, +TXA11114 ([1]; MRSN #8139): 1 µg/mL | Levofloxacin MIC fold difference, +TXA11114 ([1]; MRSN #8912): 8 fold | Levofloxacin MIC, +TXA11114 ([1]; MRSN #8912): 2 µg/mL | Levofloxacin MIC fold difference, +TXA11114 ([1]; MRSN #8914): 8 fold | Levofloxacin MIC, +TXA11114 ([1]; MRSN #8914): 2 µg/mL | Levofloxacin MIC fold difference, +TXA11114 ([1]; MRSN #8915): 2 fold | Levofloxacin MIC, +TXA11114 ([1]; MRSN #8915): 64 µg/mL | Levofloxacin MIC fold difference, +TXA11114 ([1]; MRSN #14981): 16 fold | Levofloxacin MIC, +TXA11114 ([1]; MRSN #14981): 1 µg/mL | Levofloxacin MIC fold difference, +TXA11114 ([1]; MRSN #15566): 32 fold | Levofloxacin MIC, +TXA11114 ([1]; MRSN #15566): 0.25 µg/mL | Levofloxacin MIC fold difference, +TXA11114 ([1]; MRSN #16344): 16 fold | Levofloxacin MIC, +TXA11114 ([1]; MRSN #16344): 0.5 µg/mL | Levofloxacin MIC fold difference, +TXA11114 ([1]; MRSN #369569): 8 fold | Levofloxacin MIC, +TXA11114 ([1]; MRSN #369569): 4 µg/mL | inhibition at 3 min, 10 µM (Cav1.2): 0.2% | inhibition at 5 min, 10 µM (hERG): 10.9% | inhibition at 5 min, 10 µM (Nav1.5 (peak current)): -3.7%

From article PMC13114161 (Antibiotics, 2026)
